Reference: ChEMBL document CHEMBL5291721, “A preclinical secondary pharmacology resource illuminates target-adverse drug reaction associations of marketed drugs” (Nat Commun, 2023)

Legend:
[1] = target: Neuronal acetylcholine receptor subunit alpha-4 (Homo sapiens, UniProt P43681)
Vasopressin V1a receptor = Vasopressin V1a receptor (Homo sapiens, UniProt P37288)
D(3) dopamine receptor = D(3) dopamine receptor (Homo sapiens, UniProt P35462)
[2] = target: Voltage-gated inwardly rectifying potassium channel KCNH2 (Homo sapiens, UniProt Q12809); assay type: functional; settings: read-out: AC50
Voltage-gated inwardly rectifying potassium channel KCNH2, sequence (Q12809 whole entry): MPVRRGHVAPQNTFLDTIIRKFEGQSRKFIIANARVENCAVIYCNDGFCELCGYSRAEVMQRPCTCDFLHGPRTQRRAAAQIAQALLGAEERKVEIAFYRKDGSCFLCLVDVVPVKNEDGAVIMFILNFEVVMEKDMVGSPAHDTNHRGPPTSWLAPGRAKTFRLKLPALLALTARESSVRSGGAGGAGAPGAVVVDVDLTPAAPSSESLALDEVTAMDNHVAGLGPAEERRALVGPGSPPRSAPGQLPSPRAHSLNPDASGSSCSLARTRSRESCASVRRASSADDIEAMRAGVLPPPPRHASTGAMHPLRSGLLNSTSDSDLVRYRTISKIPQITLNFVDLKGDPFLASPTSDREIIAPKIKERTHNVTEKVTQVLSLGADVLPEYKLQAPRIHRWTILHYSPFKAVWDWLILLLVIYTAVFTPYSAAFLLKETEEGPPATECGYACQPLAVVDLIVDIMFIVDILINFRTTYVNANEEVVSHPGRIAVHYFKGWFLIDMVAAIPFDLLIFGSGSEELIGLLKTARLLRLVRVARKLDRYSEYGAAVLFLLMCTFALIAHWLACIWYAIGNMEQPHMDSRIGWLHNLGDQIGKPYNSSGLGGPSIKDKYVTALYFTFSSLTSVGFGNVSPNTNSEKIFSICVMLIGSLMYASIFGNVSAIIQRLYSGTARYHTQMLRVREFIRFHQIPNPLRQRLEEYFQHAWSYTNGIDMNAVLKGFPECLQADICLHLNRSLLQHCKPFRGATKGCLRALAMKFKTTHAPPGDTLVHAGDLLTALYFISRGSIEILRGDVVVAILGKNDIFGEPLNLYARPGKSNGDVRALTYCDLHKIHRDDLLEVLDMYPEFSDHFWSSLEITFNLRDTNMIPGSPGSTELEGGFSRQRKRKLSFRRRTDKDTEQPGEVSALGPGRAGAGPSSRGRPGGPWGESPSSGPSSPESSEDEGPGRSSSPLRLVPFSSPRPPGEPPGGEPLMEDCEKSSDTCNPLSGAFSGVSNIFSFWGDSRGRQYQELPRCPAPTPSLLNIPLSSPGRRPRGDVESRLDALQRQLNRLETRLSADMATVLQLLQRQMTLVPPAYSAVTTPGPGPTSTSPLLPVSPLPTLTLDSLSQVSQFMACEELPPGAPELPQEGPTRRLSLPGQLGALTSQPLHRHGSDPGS

[3] = target: T1, Neuropeptide Y receptor type 1 (Homo sapiens, UniProt P25929)
T1 sequence (P25929 whole entry): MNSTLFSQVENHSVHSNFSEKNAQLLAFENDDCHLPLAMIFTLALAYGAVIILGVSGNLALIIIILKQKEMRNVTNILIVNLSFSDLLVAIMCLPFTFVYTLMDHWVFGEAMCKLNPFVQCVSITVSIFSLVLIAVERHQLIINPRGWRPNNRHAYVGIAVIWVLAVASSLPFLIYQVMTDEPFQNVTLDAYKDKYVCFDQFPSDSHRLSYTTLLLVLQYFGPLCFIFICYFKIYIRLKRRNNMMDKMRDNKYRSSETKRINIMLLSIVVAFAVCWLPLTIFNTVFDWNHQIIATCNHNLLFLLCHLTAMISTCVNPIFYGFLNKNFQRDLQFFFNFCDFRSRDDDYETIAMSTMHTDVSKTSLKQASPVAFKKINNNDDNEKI

[4] = target: Muscarinic acetylcholine receptor M3 (Homo sapiens, UniProt P20309)
Muscarinic acetylcholine receptor M3, sequence (P20309 whole entry): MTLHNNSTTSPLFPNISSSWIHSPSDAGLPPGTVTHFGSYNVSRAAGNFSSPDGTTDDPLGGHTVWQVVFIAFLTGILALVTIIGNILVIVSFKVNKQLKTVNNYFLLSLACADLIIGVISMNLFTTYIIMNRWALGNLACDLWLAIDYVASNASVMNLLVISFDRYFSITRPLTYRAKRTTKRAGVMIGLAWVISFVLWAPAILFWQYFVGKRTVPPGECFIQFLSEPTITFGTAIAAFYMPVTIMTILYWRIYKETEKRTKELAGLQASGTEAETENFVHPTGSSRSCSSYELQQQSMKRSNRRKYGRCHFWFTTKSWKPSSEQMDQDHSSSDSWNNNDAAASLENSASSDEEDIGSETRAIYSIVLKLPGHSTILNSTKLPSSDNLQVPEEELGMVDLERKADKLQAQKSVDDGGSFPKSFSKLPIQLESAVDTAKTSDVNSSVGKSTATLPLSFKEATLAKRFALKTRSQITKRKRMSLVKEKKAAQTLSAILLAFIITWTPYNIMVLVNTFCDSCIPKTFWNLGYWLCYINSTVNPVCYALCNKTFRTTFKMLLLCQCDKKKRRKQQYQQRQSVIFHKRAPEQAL

[5] = target: Gamma-aminobutyric acid receptor subunit alpha-1 (Rattus norvegicus, UniProt P62813)
Gamma-aminobutyric acid receptor subunit alpha-1, sequence (P62813 whole entry): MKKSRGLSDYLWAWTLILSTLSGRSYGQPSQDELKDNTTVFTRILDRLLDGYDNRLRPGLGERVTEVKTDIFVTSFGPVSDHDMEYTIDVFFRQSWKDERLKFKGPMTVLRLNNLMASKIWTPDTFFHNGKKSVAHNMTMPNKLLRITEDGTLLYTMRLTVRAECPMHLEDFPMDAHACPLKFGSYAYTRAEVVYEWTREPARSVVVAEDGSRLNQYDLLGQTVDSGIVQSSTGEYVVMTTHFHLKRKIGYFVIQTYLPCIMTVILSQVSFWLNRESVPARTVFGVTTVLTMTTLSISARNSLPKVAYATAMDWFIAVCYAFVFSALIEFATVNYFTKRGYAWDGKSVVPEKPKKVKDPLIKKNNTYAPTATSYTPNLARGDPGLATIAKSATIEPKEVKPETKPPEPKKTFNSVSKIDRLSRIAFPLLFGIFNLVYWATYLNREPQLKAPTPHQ

Melanocortin receptor 3 = Melanocortin receptor 3 (Homo sapiens, UniProt P41968)
Melanocortin receptor 3, sequence (P41968 whole entry): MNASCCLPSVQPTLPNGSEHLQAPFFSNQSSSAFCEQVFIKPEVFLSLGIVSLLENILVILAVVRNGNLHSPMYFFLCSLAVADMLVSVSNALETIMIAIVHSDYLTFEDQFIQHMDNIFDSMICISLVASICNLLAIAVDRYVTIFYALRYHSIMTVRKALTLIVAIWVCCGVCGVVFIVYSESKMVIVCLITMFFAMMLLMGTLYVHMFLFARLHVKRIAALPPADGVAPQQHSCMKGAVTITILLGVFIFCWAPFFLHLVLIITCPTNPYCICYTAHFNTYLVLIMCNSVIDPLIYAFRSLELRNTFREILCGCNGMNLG

Thromboxane A2 receptor = target: T2, Thromboxane A2 receptor (Homo sapiens, UniProt P21731)
T2 sequence (P21731 whole entry): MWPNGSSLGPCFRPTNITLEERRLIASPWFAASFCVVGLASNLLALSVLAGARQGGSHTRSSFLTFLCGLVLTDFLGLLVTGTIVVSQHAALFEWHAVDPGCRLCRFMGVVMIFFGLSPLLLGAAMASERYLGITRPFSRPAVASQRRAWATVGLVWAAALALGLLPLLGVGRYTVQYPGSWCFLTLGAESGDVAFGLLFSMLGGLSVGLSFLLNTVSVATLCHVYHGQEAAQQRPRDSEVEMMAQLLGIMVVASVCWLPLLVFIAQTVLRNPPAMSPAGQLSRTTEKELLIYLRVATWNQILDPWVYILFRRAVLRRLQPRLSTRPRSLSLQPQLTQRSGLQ

[6] = target: T3, Muscarinic acetylcholine receptor M2 (Homo sapiens, UniProt P08172); assay type: functional, cell-based
T3 sequence (P08172 whole entry): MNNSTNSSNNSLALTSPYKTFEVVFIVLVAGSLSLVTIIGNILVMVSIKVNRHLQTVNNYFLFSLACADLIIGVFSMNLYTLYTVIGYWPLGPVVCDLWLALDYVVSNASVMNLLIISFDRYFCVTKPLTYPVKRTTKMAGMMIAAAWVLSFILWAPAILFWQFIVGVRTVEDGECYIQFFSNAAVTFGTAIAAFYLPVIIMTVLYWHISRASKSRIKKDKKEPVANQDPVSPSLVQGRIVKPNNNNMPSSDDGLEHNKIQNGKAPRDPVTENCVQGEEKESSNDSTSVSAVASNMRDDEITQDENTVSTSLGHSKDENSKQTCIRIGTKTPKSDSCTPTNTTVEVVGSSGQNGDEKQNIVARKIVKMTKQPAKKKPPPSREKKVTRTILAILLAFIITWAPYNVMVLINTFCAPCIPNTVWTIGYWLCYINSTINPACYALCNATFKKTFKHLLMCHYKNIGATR

[7] = target: T3, Muscarinic acetylcholine receptor M2; assay type: functional, cell-based; remark: listed apart in the source
Progesterone receptor = target: T4, Progesterone receptor (Homo sapiens, UniProt P06401); assay type: functional
T4 sequence (P06401 whole entry): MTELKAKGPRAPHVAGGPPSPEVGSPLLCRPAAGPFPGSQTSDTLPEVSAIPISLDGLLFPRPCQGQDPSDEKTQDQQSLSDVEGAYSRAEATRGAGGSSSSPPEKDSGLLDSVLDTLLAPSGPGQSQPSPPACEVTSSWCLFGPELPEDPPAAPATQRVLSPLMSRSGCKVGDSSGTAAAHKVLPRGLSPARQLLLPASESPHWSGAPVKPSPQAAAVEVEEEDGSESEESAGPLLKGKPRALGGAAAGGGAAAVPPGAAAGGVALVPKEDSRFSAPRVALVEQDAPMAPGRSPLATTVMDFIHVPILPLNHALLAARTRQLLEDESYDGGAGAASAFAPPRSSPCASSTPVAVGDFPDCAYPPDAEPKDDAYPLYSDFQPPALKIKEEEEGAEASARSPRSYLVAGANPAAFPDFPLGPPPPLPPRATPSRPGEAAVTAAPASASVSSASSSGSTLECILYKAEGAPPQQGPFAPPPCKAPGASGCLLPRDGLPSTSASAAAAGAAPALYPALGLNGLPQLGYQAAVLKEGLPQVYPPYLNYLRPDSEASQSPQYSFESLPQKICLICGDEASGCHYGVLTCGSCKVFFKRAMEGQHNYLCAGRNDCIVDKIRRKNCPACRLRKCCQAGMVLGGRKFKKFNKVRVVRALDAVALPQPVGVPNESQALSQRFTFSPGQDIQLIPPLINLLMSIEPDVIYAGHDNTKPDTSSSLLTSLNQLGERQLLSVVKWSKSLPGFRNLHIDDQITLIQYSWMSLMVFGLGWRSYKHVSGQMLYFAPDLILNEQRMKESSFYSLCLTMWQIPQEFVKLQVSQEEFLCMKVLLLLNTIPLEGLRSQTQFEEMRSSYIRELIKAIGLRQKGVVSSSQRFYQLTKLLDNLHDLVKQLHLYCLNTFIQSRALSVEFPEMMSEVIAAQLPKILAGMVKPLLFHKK

[8] = target: Delta-type opioid receptor (Homo sapiens, UniProt P41143)
Delta-type opioid receptor, sequence (P41143 whole entry): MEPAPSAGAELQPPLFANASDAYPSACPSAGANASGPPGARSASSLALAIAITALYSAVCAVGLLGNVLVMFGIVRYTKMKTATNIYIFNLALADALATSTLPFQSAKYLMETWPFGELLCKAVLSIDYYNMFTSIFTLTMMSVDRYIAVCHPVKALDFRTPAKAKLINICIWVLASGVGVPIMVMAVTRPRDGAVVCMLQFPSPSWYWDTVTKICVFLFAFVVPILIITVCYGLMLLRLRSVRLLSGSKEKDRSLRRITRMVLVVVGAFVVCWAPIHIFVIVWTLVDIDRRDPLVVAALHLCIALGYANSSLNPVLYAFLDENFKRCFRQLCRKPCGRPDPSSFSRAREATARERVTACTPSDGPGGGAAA

[9] = target: Kappa-type opioid receptor (Homo sapiens, UniProt P41145)
Kappa-type opioid receptor, sequence (P41145 whole entry): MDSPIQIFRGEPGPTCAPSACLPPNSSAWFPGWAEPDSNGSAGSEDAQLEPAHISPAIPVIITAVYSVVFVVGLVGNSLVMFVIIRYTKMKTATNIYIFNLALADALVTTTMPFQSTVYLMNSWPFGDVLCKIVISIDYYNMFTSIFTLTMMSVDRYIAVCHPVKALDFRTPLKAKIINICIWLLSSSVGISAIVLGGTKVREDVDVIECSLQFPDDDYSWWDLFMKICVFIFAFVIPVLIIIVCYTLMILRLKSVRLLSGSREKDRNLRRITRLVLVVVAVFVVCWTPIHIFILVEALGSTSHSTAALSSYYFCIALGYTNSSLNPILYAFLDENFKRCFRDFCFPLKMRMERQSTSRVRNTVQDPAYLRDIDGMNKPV
Note: assay procedure not described here.

D(3) dopamine receptor, sequence (P35462 whole entry): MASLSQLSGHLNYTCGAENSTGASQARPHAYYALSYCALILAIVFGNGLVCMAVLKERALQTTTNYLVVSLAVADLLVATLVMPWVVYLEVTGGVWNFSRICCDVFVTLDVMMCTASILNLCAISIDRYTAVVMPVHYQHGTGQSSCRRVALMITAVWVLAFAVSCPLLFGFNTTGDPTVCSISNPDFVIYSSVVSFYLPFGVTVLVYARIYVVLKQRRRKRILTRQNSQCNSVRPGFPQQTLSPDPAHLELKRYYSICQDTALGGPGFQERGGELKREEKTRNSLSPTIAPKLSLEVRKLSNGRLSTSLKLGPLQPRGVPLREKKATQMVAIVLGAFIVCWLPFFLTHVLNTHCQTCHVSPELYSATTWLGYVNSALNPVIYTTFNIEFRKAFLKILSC
Vasopressin V1a receptor, sequence (P37288 whole entry): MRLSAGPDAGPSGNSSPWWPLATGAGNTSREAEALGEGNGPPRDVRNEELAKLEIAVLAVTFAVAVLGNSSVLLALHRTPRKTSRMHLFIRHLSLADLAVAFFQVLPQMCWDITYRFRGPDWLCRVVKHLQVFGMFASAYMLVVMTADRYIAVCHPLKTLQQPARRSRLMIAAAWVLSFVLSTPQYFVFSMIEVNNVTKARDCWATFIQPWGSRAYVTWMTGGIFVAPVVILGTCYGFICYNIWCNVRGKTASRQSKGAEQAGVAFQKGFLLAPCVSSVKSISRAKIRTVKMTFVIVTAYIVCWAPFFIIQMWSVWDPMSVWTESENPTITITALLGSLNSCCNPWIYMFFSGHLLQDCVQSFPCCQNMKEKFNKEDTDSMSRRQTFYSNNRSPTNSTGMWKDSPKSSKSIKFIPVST
Neuronal acetylcholine receptor subunit alpha-4, sequence (P43681 whole entry): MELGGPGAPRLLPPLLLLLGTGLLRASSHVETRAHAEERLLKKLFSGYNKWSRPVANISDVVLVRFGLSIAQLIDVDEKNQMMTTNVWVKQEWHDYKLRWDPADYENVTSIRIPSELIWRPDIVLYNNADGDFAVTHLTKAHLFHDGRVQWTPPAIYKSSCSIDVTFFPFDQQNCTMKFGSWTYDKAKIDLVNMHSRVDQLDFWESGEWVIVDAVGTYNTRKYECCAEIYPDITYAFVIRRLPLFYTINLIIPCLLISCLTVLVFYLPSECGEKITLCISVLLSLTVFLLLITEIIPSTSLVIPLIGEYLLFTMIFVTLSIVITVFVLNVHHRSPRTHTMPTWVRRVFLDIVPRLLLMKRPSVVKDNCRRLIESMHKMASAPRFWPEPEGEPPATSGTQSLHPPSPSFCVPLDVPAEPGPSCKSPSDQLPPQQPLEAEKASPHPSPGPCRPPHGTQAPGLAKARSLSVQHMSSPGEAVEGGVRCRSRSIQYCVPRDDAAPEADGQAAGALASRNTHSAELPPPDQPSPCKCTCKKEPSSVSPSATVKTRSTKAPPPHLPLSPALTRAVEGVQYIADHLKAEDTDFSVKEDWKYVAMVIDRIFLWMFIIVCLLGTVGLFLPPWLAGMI

Structure (SMILES)	AC50 [1] [µM]	AC50 (Vasopressin V1a receptor) [µM]	AC50 (D(3) dopamine receptor) [µM]	AC50 [2] [µM]	AC50 [3] [µM]	AC50 [4] [µM]	AC50 [5] [µM]	AC50 (Melanocortin receptor 3) [µM]	AC50 (Thromboxane A2 receptor) [µM]	AC50 [6] [µM]	AC50 [7] [µM]	AC50 (Progesterone receptor) [µM]	AC50 [8] [µM]	AC50 [9] [µM]
C=C1CC[C@@]2(O)[C@H]3Cc4ccc(O)c5c4[C@@]2(CCN3CC2CC2)[C@H]1O5	> 30	> 30	> 30	28	> 30	> 30	> 30	> 30	> 30	> 30	> 30	> 30	–	–
CCCC(CCC)C(=O)O[C@H]1C[C@H]2CC[C@@H](C1)[N+]2(C)C [ANISOTROPINE]	26	> 30	> 30	2.1	> 30	0.036	–	> 30	> 30	> 30	0.63	> 30	> 30	> 30
CCCCCOC(=O)Nc1nc(=O)n([C@@H]2O[C@H](C)[C@@H](O)[C@H]2O)cc1F [CAPECITABINE]	> 30	> 30	> 30	> 30	> 30	> 30	–	> 30	–	> 30	> 30	> 30	> 30	> 30
COC(=O)[C@H]1[C@@H](OC(=O)c2ccccc2)C[C@@H]2CC[C@H]1N2C [COCAINE]	> 30	> 30	> 30	–	> 30	> 30	> 30	> 30	> 30	> 30	> 30	> 30	> 30	> 30
[H]/N=C(/N)c1ccc(NCc2nc3cc(C(=O)N(CCC(=O)O)c4ccccn4)ccc3n2C)cc1 [DABIGATRAN]	> 30	> 30	> 30	> 30	> 30	> 30	> 30	> 30	–	> 30	> 30	> 30	> 30	> 30
CCCCCCCCCCCC[N+](C)(C)CCOc1ccccc1 [DOMIPHEN]	> 30	11	2.1	1.7	4.4	8.4	> 30	–	> 30	14	–	> 30	> 30	3.6
O=C1CN=C(c2ccccc2)c2cc(Cl)ccc2N1CC(F)(F)F [HALAZEPAM]	> 30	> 30	> 30	> 30	> 30	> 30	–	> 30	–	> 30	> 30	> 30	> 30	20
C[C@H]1C[C@@H]2[C@H]([C@@H](O)C[C@@]3(C)[C@H]2CC[C@]3(O)C(=O)COC(=O)CCC(=O)O)[C@@]2(C)C=CC(=O)C=C12 [METHYLPREDNISOLONE HEMISUCCINATE]	> 30	> 30	> 30	> 30	> 30	> 30	> 30	> 30	–	> 30	> 30	> 30	> 30	> 30
CCCCCCC(C)(C)c1cc(O)c2c(c1)OC(C)(C)C1CCC(=O)CC21 (centres undefined) [NABILONE]	> 30	> 30	> 30	> 30	> 30	> 30	> 30	> 30	–	> 30	> 30	> 30	> 30	> 30
CCCCCCCCOc1ccccc1C(=O)Nc1ccc(C(=O)OCC[N+](C)(CC)CC)cc1 [OTILONIUM BROMIDE]	> 30	13	2	0.66	10	1.7	> 30	5.1	> 30	16	–	> 30	29	3.4
O=C(O)CCCc1ccccc1 [PHENYLBUTANOIC ACID]	> 10	> 30	> 30	> 30	> 10	> 30	> 30	> 10	> 10	> 30	> 30	–	> 30	> 30
CC(Cc1ccccc1)NCCC(c1ccccc1)c1ccccc1 (centres undefined) [PRENYLAMINE]	> 10	> 30	2.4	0.736	> 30	> 10	> 10	> 30	> 30	> 10	> 10	–	> 30	0.382
C1COC(NC(C2CC2)C2CC2)=N1 [RILMENIDINE]	> 10	> 30	> 10	> 30	> 30	> 30	> 10	> 30	> 30	> 10	> 10	–	> 30	1.72
O=C1NCCN1CCN1CCC(c2cn(-c3ccc(F)cc3)c3ccc(Cl)cc23)CC1 [SERTINDOLE]	17	> 30	–	–	> 30	22	> 30	12	> 30	> 30	> 10	> 30	> 30	3.7
Cc1ccc(-c2nc3ccc(C)cn3c2CC(=O)N(C)C)cc1 [ZOLPIDEM]	> 30	> 30	> 30	–	> 30	> 30	–	> 30	> 30	> 30	> 30	> 30	> 30	18
